Data on 1 compound can be found in US20090196885A1, “Cancer Treatment” (National Health Research Institutes, priority 2005, published 2009).

The experiment has as its system Hep G2 hepatoma cells. Briefly: In vitro cancer cell proliferation assay (sulforhodamine B), Hep G2. The experiment is classed as cell-based. Particulars: Homo sapiens, HepG2, 144 h; lovastatin 2 μM alone; incubation for 6 days; read-out: inhibited growth of Hep G2 cells. As for the experimental part: Hep G2 hepatoma cells were seeded in a 96-well culture plate (2000 cells/well) and cultured overnight in 100 μl of complete DMEM.

On to `CC[C@H](C)C(=O)O[C@H]1C[C@@H](C)C=C2C=C[C@H](C)[C@H](CC[C@@H]3C[C@@H](O)CC(=O)O3)[C@H]21` [lovastatin], for which the inhibition at 2 µM was 11.5%.
